Results: paper PMC3914891, “Pentacyclic Nitrofurans with In Vivo Efficacy and Activity against Nonreplicating Mycobacterium tuberculosis” (PLoS ONE, 2014)
Values after ≈ are worked out from the molar mass of the structure shown. Read-outs that look alike come from different tables or passages of the source. Marks after values point to notes of the source that are not given here.

Key:
[1] = system: Klebsiella pneumoniae (ATCC 33495); assay: MIC, spectrum of activity: Klebsiella pneumoniae; type: cell-based; conditions: ATCC33495
[2] = rat, in vivo, cited from earlier work
[3] = rats; IV 10 mg/kg and oral 100 mg/kg
[4] = cited from earlier work
[5] = In vitro cytotoxicity against Vero cells; conditions: African green monkey, Vero cells (kidney epithelial cells, ATCC CCL-81)
[6] = system: Vero cells; assay: In vitro cytotoxicity against Vero cells
[7] = system: Stenotrophomonas maltophilia (ATCC 13637); assay: MIC, spectrum of activity: S.m.; type: cell-based; conditions: ATCC13637, read-out: Minimum Inhibitory Concentration, S.m.
[8] = in vitro; conditions: mouse, microsomes
[9] = system: M. tuberculosis H37Rv; assay: Minimum bactericidal concentration determination; type: cell-based, Mycobacterium tuberculosis
[10] = system: M. abscessus (ATCC 19977); assay: MIC, non-tuberculosis mycobacteria: M. abscessus; type: cell-based; conditions: Mycobacteroides abscessus, ATCC19977, 72 h; broth dilution, visual inspection, 3 days; range of at least two independent experiments; read-out: Minimum Inhibitory Concentration, M. abscessus
[11] = system: H37Rv-wt; assay: microbe, parasite or virus in culture; type: cell-based, M. tuberculosis; conditions: Mycobacterium tuberculosis
[12] = system: Staphylococcus aureus (ATCC 29213); assay: MIC, spectrum of activity: S.a.; type: cell-based; conditions: ATCC29213, read-out: Minimum Inhibitory Concentration, S.a
[13] = system: Pseudomonas aeruginosa (PA01); assay: microbe, parasite or virus in culture; type: cell-based
[14] = system: Streptococcus pyogenes (ATCC 700294); assay: MIC, spectrum of activity: S.py; type: cell-based; conditions: ATCC700294, read-out: Minimum Inhibitory Concentration, S. Py.
[15] = system: Streptococcus pneumoniae (R6); assay: MIC, spectrum of activity: S.pn; type: cell-based; conditions: read-out: Minimum Inhibitory Concentration, S. Pn.
[16] = system: Staphylococcus aureus (NRS70); assay: MIC, spectrum of activity: MRSA; type: cell-based; conditions: read-out: Minimum Inhibitory Concentration, MRSA
[17] = system: E. coli K12 ∆tolC; type: cell-based; conditions: E. coli K12 ∆tolC (efflux pump deficient)
[18] = system: M. kansasii (ATCC 12478); assay: MIC, non-tuberculosis mycobacteria: M. kansasii; type: cell-based; conditions: Mycobacterium kansasii, ATCC12478, 168 h; broth dilution, visual inspection, 7 days; read-out: Minimum Inhibitory Concentration, M. kansasii
[19] = system: M. avium (ATCC 25291); assay: MIC, non-tuberculosis mycobacteria: M. avium; type: cell-based; conditions: Mycobacterium avium, ATCC25291, 168 h; broth dilution, visual inspection, 7 days; read-out: Minimum Inhibitory Concentration, M. avium
[20] = system: M. ulcerans (ATCC 35840); assay: MIC by agar proportion method: M. ulcerans; type: cell-based; conditions: Mycobacterium ulcerans, ATCC35840, 672 h; agar proportion method, 4 weeks; read-out: Minimum Inhibitory Concentration, M. ulcerans
[21] = system: hypoxic M. tuberculosis strain H37Rv; assay: NRP bacteria under hypoxia (rapid anaerobic dormancy model); type: cell-based, Mycobacterium tuberculosis
[22] = system: M. fortuitum (ATCC 6841); assay: MIC, non-tuberculosis mycobacteria: M. fortuitum; type: cell-based; conditions: Mycolicibacterium fortuitum, ATCC6841, 72 h; broth dilution, visual inspection, 3 days; read-out: Minimum Inhibitory Concentration, M. fortuitum
[23] = system: Burkholderia cepacia (ATCC 25416); assay: MIC, spectrum of activity: B.c.; type: cell-based; conditions: ATCC25416, read-out: Minimum Inhibitory Concentration, B.c.
[24] = system: Proteus mirabilis(ATCC 25933); assay: MIC, spectrum of activity: Proteus mirabilis; type: cell-based; conditions: ATCC25933
[25] = system: Proteus vulgaris (ATCC 33420); assay: MIC, spectrum of activity: Proteus vulgaris; type: cell-based; conditions: ATCC33420
[26] = mouse, plasma; cited from earlier work
[27] = system: Enterococcus faecalis (ATCC 33186); assay: MIC, spectrum of activity: E.f.; type: cell-based; conditions: ATCC33186, read-out: Minimum Inhibitory Concentration, E.f.
[28] = system: M. tuberculosis; assay: MIC determination, microbroth dilution, M. tuberculosis; type: cell-based, Mycobacterium tuberculosis; conditions: for MIC: Mycobacterium tuberculosis
[29] = system: M. tuberculosis strain H37Rv (mid-log and nutrient-starved); assay: Nutrient starvation model of nonreplicating persisters; type: cell-based, Mycobacterium tuberculosis
[30] = system: Bacillus subtilis (ATCC 23857); assay: MIC, spectrum of activity: B.s.; type: cell-based; conditions: ATCC23857, read-out: Minimum Inhibitory Concentration, B.s.

O=[N+]([O-])c1ccc(C2=NOC(c3ccc(N4CCC(Oc5ccc(OC(F)(F)F)cc5)CC4)cc3)C2)o1 (stereo not shown) [Compound 9a, 3-(5-Nitrofuran-2-yl)-5-(4-(4-(4-(trifluoromethoxy)phenoxy)piperidin-1-yl)phenyl)-4,5-dihydroisoxazole]
MIC [1]: > 200 mg/L
Vd ([2]; iv, 10 mg/kg): 6.72 (1.10) L/kg
fe (fraction excreted unchanged in urine) ([2]; iv, 10 mg/kg): 0.04 (0.01) %
AUC0-∞ ([2]; po, 100 mg/kg): 10.2 (9.1) mg h/L
Cmin,24 h ([2]; po, 100 mg/kg): 0.17 (0.16) mg/L
Cmax [2]: 0.85 µg/mL
Cmin,24 h [2]: 0.17 µg/mL
Toxicity by intravenous and oral dosing [3]: non-toxic
Solubility (pH 7.4) [4]: 2.7 ^h µg/mL
IC50 [5]: 19.4 mg/L (≈ 37.5 µM)
Selective Index (Cytox/MIC) [6]: 808
MIC [7]: 25 mg/L (≈ 48.3 µM)
half-life [8]: 5.06 h
MBC [9]: 3.13–6.25
Classification ([9]; cidal or static from MBC versus MIC): Static (static (MBC/MIC >4))
MIC [10]: 12.5 mg/L (≈ 24.2 µM)
MIC [11]: 0.025 mg/L (≈ 0.0483 µM)
MIC [12]: 50 mg/L (≈ 96.6 µM)
MIC [13]: > 200 mg/L
MIC [14]: 200 mg/L (≈ 387 µM)
MIC [15]: 100 mg/L (≈ 193 µM)
MIC [16]: 50 mg/L (≈ 96.6 µM)
Minimum Inhibitory Concentration, E.c. ΔtolC [17]: 50 µg/mL
MIC [18]: 3.13 to 6.25 mg/L (≈ 6.05 to 12.1 µM)
MIC [19]: 200 mg/L (≈ 387 µM)
MIC [20]: 0.02 to 0.05 mg/L (≈ 0.0387 to 0.0966 µM)
% Growth vs. Control [21]: <0.1%
killing of hypoxic bacilli ([21]; 10 µg/mL, NRP-2 bacilli): > 99.9%
MIC [22]: 6.25 to 12.5 mg/L (≈ 12.1 to 24.2 µM)
MIC [23]: 50 mg/L (≈ 96.6 µM)
MIC [24]: > 200 mg/L
MIC [25]: > 200 mg/L
Plasma Protein binding [26]: 99.9 ^h %
MIC [27]: > 200 mg/L
fold more potent than PA-824 (MIC) ([28]; M. tuberculosis MIC compared with PA-824): 20 fold
MIC ([28]; 168 h, read-out: M. tb. MIC): 0.024 mg/L
MIC ([28]; M. tuberculosis, […], read-out: MIC): 0.046 µM
reduction in viability (killing) of actively growing culture [29]: 80%
reduction in viability of nutrient starved bacilli [29]: 80%
MIC [30]: 100 mg/L (≈ 193 µM)
